Assay results reported in patent publication US20140336248A1, “THERAPEUTIC COMPOSITIONS AND RELATED METHODS OF USE” (priority 2011, published 2014).

Key:
Assay type in all cases: in vivo, mouse
ICR mice [1] = assay: Tolerability 0.03, 0.1, 0.3, 1.0 mg/kg IV in 5% ethanol/10% propylene glycol/20% Solutol HS 15, 4 days (Example Q); details: 5% ethanol/10% propylene glycol/20% Solutol HS 15 (heading)
Protocol: (§1) Using the techniques described above in Example A, an aqueous vehicle comprising 5% ethanol (v/v), 10% propylene glycol (v/v), and 10% Solutol® HS 15 (v/v) was prepared. An appropriate amount of salinomycin sodium was dissolved into the vehicle to make solutions having concentrations of 0.006, 0.02, 0.06, and 0.2 mg/mL. Ten male ICR mice (Sino-British SIPPR/BK Lab Animal Ltd, Shanghai, China) were assigned to control and treatment groups. […] The individual animal number was marked on the tail, and study number comprised a unique identification for each animal. Animal identification was verified during the course of the study. The animals were housed two per cage in stainless steel suspended cage in an environmentally controlled room. SLACOM (Rodent Diet #20110615029, Shanghai SLAC Laboratory Animal Co. Ltd.) was available ad libitum. Temperature and humidity were monitored and recorded twice daily.
(§2) Each composition and the vehicle (control) were administered once daily to each of two mice via intravenous bolus injection for 4 consecutive days. The dose levels for the treated groups and the control group are in the below table. Individual doses were based on the most recent body weight.
(§3) Body weights for all animals were measured and recorded at receipt, prior to randomization, and once daily during the study. Body weight change was calculated for mean value of animals relative to Day 1 mean body weight value.

ICR mice [2] = assay: Tolerability 0.1, 0.3, 1.0 mg/kg IV in 3% propylene glycol/10% Solutol HS 15, 4 days (Example O); details: for Body weight: FIG. 8
Protocol: as §1, with “3%” for “5% ethanol (v/v), 10%”, “(v/v)” for “(v/v),”, “of” for “of 0.006,”, “Eight” for “Ten”
as §2, §3

ICR mice [3] = assay: Tolerability 0.1, 0.3, 1.0 mg/kg IV in 1% ethanol/4% propylene glycol/5% Solutol HS 15, 4 days (Example P)
Protocol: as §1, with “comprising 1%” for “comprising 5%”, “(v/v), 4%” for “(v/v), 10%”, “glycol (v/v)” for “glycol (v/v),”, “and 5%” for “and 10%”, “of” for “of 0.006,”, “mg/mL. Eight” for “mg/mL. Ten”
as §2, §3

ICR mice [4] = assay: Tolerability IV in 5% ethanol/15% Solutol HS 15, 5 days (Example L); details: for Clinical observations: one animal
Protocol: Injectable salinomycin compositions were prepared as follows: 0.6 mg/mL stock solution: 1.2 mg of salinomycin sodium was added to 100 μL ethanol and vortexed for 2 minutes and sonicated for 2 minutes to yield a clear solution. To this solution was next added 300 μL Solutol® HS 15, with vortexing for 1 minute. Finally, 1.6 mL water was added to produce a clear stock solution of 0.6 mg/mL salinomycin sodium.
Six male ICR mice (Sino-British SIPPR/BK Lab Animal Ltd, Shanghai, China) were assigned to control and treatment groups. […] The individual animal number marked on the tail, and study number comprised a unique identification for each animal. Animal identification was verified during the course of the study. The animals were housed two per cage in stainless steel suspended cage in an environmentally controlled room. SLACOM (Rodent Diet #20110615029, Shanghai SLAC Laboratory Animal Co. Ltd.) was available ad libitum. Temperature and humidity were monitored and recorded twice daily.
Each composition and the vehicle (control) were administered once daily to each of two mice via intravenous bolus injection for 5 consecutive days. The dose levels for the treated groups and the control group are in the below table. Individual doses were based on the most recent body weight.
as §3

CC[C@@H](C(=O)[C@@H](C)[C@@H](O)[C@H](C)[C@@H]1O[C@@H]([C@@H](CC)C(=O)O)CC[C@@H]1C)[C@H]1O[C@]2(C=C[C@@H](O)[C@]3(CC[C@@](C)([C@H]4CC[C@](O)(CC)[C@H](C)O4)O3)O2)[C@H](C)C[C@@H]1C [salinomycin sodium]
Clinical observations (ICR mice [1]; 0.03 mg/kg IV once daily 4 days): no abnormalities | Clinical observations (ICR mice [1]; 0.1 mg/kg IV once daily 4 days, after administration, no abnormalities on days 2, 3, 4): decreased activity and discolored urine (red) | Clinical observations (ICR mice [1]; 0.3 mg/kg IV once daily 4 days, after administration, no abnormalities on days 2, 3, 4): decreased activity and discolored urine (red) | Mortality (ICR mice [1]; 1.0 mg/kg IV): died shortly after administration | Body weight (ICR mice [1]; each group surviving administration, IV once daily 4 days, FIG. 10): relatively stable | Clinical observations (ICR mice [2]; 0.1 mg/kg IV once daily 4 days): no abnormalities | Clinical observations (ICR mice [2]; 0.3 mg/kg IV once daily 4 days, after initial administration, no abnormalities on days 2, 3, 4): slight decrease in activity | Body weight (ICR mice [2]; 1 mg/kg IV once daily 4 days): decreased steadily | Clinical observations (ICR mice [2]; 1.0 mg/kg IV once daily 4 days, no abnormalities on days 2, 3, 4): decreased activity and leaning | Body weight (ICR mice [2]; 0.1 and 0.3 mg/kg IV once daily 4 days): remained relatively stable | Clinical observations (ICR mice [3]; 0.1 mg/kg IV once daily 4 days): no abnormalities | Clinical observations (ICR mice [3]; 0.3 mg/kg IV once daily 4 days): no abnormalities | Clinical observations (ICR mice [3]; 1 mg/kg IV once daily 4 days, no abnormalities on days 2, 3, 4): decrease in activity after initial administration | Body weight (ICR mice [3]; 0.1, 0.3, 1 mg/kg IV once daily 4 days, FIG. 9): increased | Clinical observations (ICR mice [4]; 0.1 mg/kg IV once daily 5 days): decreased activity immediately after dosing on day 1 | Clinical observations (ICR mice [4]; 0.3 mg/kg IV once daily 5 days): hypersensitivity to touch after dosing on day 1 | Body weight change relative to Day 1 (ICR mice [4]; 0.1, 0.3 mg/kg IV once daily 5 days, FIG. 5): all groups added weight
